System: Listeria innocua
Test: Bacterial viability of Listeria innocua, 2 h incubation in tryptone soy broth, CFU counting
Assay type: cell-based
Conditions: L. innocua, about 10^6 CFU/ml, 37° C., concentration of vanillin
Experimental: To that end, in vitro assays were carried out to determine the bacterial viability of Listeria innocua compared to mesoporous particles functionalized with vanillin as well as free vanillin. […] To that end, different suspensions of particles or free vanillin in culture broth (tryptone soy broth) were prepared, and the microbial inoculum was added thereto to obtain an initial population of about 10^6 CFU/ml. Said suspensions were incubated under orbital stirring (150 rpm) at 37° C. for 2 h. After said period, the serial dilutions were seeded in selective medium and incubated for 48 h, with subsequent counting of the colony forming units (CFUs) and calculation of the percentage of inhibition.

COc1cc(C=O)ccc1O [free vanillin, vanillin]
concentration producing complete inhibition of the microorganism: 4 mg/mL

Source: patent publication US20180177184A1, “ANTIMICROBIAL, INSECTICIDAL AND ACARICIDAL SYSTEM” (UNIVERSIDAD POLITECNICA DE VALENCIA, priority 2015, published 2018)
